# According to paper PMC4308941 (Cough (London, England), 2014):
# How the values were obtained:
# healthy volunteers [1] = experiment: Airway inflammation by fractional exhaled nitric oxide (FeNO); type: in vivo, human
# Excerpt: FeNO measurements were always performed before cough challenges using a standardized single-breath method with an electrochemical analyzer (HypAir FeNO system, Medisoft, Sorinnes, BE). Subjects were seated (with no nose clip), and exhaled to residual volume, inserted the mouthpiece, inhaled to total lung capacity, then exhaled for 10 seconds at a constant flow rate of 0.05 L/s ± 10%. The end-point of measurement was considered when a plateau of at least 4 seconds was observed. Exhalations were repeated after a 30-second period of relaxation until 3 independent FeNO values with ≤10% variation were obtained.
# healthy volunteers [2] = experiment: Citric acid cough challenge (cough sensitivity C2/C5); type: in vivo, human
# Description: (§1) This was a repeated-dose, balanced, two-sequence, two-period, two-treatment, non-placebo controlled, randomized, crossover design study. Since this study examined two ACE-i agents with similar characteristics and was performed using an open design, blinding was not necessary. […] The administered doses were those used for treatment of hypertension and which would yield a similar percentage of responders.
# (§2) Capsaicin and citric acid cough challenges were performed prior to and following each 7-day treatment period (Table 2). Cough sensitivity was assessed as the lowest capsaicin or citric acid concentrations causing at least 2 (C2) or 5 coughs (C5), provided that cough was still present following inhalation of the next tussigenic concentration. C2 and C5 values were converted to logC2 and logC5, respectively, for analysis. Concentrations of both capsaicin and citric acid were prepared according to standard procedures, nebulized by a jet nebulizer (DeVilbiss 646, DeVilbiss Health Care Inc., Somerset, PA) driven by compressed air (8 L/min), and inhaled for 1 min during normal tidal breathing. Volunteers undergoing cough challenges were specifically instructed not to attempt to suppress coughs and not to talk immediately after inhalation of the tussigenic agent. In addition, subjects were given the following instruction: “allow yourself to cough if you need to, and as much as you need to”. Subjects were also requested to note on a diary the occurrence of spontaneous cough during the two 7-day treatment periods, using a verbal scale.
# healthy volunteers [3] = experiment: Adverse event and vital signs monitoring; type: in vivo, human
# Description: as §1
# prostaglandins = tested on: prostaglandins; set-up: method as in PMID 1850188; details: in-vivo study, compared with other ACE-i; cited from earlier work
# bradykinin (BK) = experiment: Bradykinin plasma levels; type: in vivo, human; details: day 7 of treatment period, zofenopril 30 mg vs ramipril 10 mg
# Description: (§3) Blood samples for the measurement of PK parameters and for BK determination were obtained at pre-dose and after drug administration for each of the two study periods (Table 2). […] Repeated pre-dose PK variables determination was performed in order to establish baseline variability.
# [4] = Plasma pharmacokinetics at steady state (day 7)
# Description: as §3
# Spontaneous cough occurring during the two treatment periods was only qualitatively assessed, as the prevalence was expected to be low or very low. AUCss,τ PK parameters were calculated from the individual concentration-time data by using the program WinNonlin software (Pharsight Corporation, Mountain View, CA, USA) and summarized by treatment by means of descriptive statistics, in order to determine mean and standard deviation values. Paired t-test was used to compare mean FeNO values recorded after administration of the test and the reference drug. Statistical analyses were performed by using GraphPad Prism, version 3.02 (GraphPad Software, Inc. La Jolla, CA); sample size and power calculations were performed by using a dedicated software (nQuery Advisor, release 2.0, Los Angeles, CA). A p value <0.05 was considered statistically significant.
# rabbits = details: cited from earlier work
# [5] = cited from earlier work
# healthy volunteers [6] = experiment: Spontaneous cough recordings (diary); type: in vivo, human; details: for total distinct coughing episodes: during 7-day treatment, 40 volunteers; for volunteers who recorded at least 1 spontaneous coughing episode: out of 40, during 7-day treatment
# Description: as §2
# A p value <0.05 was considered statistically significant.
# guinea pigs = details: cited from earlier work
# plasma ACE activity = details: at 24 h after single oral doses of 30 mg; cited from earlier work
# healthy volunteers [7] = experiment: Capsaicin cough challenge (cough sensitivity C2/C5); type: in vivo, human
# Description: as §1, §2
# ACE = details: compared with complexes of other ACE inhibitors; cited from earlier work
# [8] = single dose, cited from earlier work
# [9] = tested on: normotensive volunteers / hypertensive patients; set-up: method as in PMID 11116103; details: cited from earlier work
smiles,measurement,setting,value
C[C@H](CSC(=O)c1ccccc1)C(=O)N1C[C@@H](Sc2ccccc2)C[C@H]1C(=O)O [zofenopril],"FeNO, mean ± SD","healthy volunteers [1]; after 7-day treatment, controls 22 ± 12 (zofenopril), 24 ± 9.6 (ramipril)",26 ± 12 PPB
same,"citric acid LogC2, mean ± SD","healthy volunteers [2]; after 7-day treatment, 40 volunteers, controls 1.85 ± 1.24 (zofenopril), 1.80 ± 1.28 (ramipril)",1.81 ± 1.27 mM
same,"citric acid LogC5, mean ± SD","healthy volunteers [2]; after 7-day treatment, 40 volunteers, controls 2.69 ± 1.88 (zofenopril), 2.67 ± 2.01 (ramipril)",2.51 ± 1.57 mM
same,subjects reporting adverse events of mild intensity,"healthy volunteers [3]; of 40 subjects, headache, vomit, backache, vertigo",8
same,capability to stimulate the production of prostaglandins,prostaglandins,less than that of other ACE-i
same,BK plasma levels after administration,bradykinin (BK),No difference
same,Cmin (lowest plasma concentration in the τ period),[4]; 24 h interval after administration on day 7,0
same,"AUCss,τ, mean ± SD","[4]; 24 h interval after drug administration on day 7, zofenopril 30 mg/day or ramipril 10 mg/day oral",84.25 ± 34.47 ng/ml x h
same,cough response induced by mechanical and chemical airway stimulation,rabbits,"but not zofenopril, increased"
same,oral absorption,[5]; after oral administration,completely absorbed
same,total distinct coughing episodes,healthy volunteers [6],36
same,volunteers who recorded at least 1 spontaneous coughing episode,healthy volunteers [6],7
same,effect on citric-acid induced cough,guinea pigs,did not increase
same,suppression of plasma ACE activity,plasma ACE activity,74.4%
same,"capsaicin LogC2 (concentration causing at least 2 coughs), mean ± SD","healthy volunteers [7]; after 7-day treatment (zofenopril 30 mg/day, ramipril 10 mg/day), 40 volunteers, controls 0.81 ± 0.42 (zofenopril), 0.78 ± 0.41 (ramipril)",0.75 ± 0.40 μM
same,"capsaicin LogC5 (concentration causing at least 5 coughs), mean ± SD","healthy volunteers [7]; after 7-day treatment, 40 volunteers, controls 1.4 ± 0.72 (zofenopril), 1.3 ± 0.63 (ramipril)",1.3 ± 0.68 μM
C[C@H](N[C@@H](CCc1ccccc1)C(=O)O)C(=O)N1[C@H](C(=O)O)C[C@@H]2CCC[C@@H]21 [ramiprilat],stability/dissociation of inhibitor-ACE complex,ACE,dissociates more slowly
same,time to peak plasma concentrations,[5]; after intake of ramipril,2 to 4 h
CCOC(=O)[C@H](CCc1ccccc1)N[C@@H](C)C(=O)N1[C@H](C(=O)O)C[C@@H]2CCC[C@@H]21 [ramipril],"FeNO, mean ± SD",healthy volunteers [1]; in vivo,33 ± 16 PPB
same,"citric acid LogC2, mean ± SD","healthy volunteers [2]; human, in vivo, 7 days",1.48 ± 1.09 mM
same,"citric acid LogC5, mean ± SD","healthy volunteers [2]; human, in vivo, 7 days",2.23 ± 1.04 mM
same,subjects reporting adverse events of mild intensity,"healthy volunteers [3]; human, in vivo, 7 days",5
same,BK plasma levels after administration,bradykinin (BK),No difference
same,time to peak antihypertensive effect,[8]; after oral administration,3 to 6 h
same,duration of antihypertensive effect,[8]; oral,24 h
same,cough response induced by mechanical and chemical airway stimulation,rabbits,increased
same,total distinct coughing episodes,healthy volunteers [6],24
same,volunteers who recorded at least 1 spontaneous coughing episode,healthy volunteers [6],9
same,augmentation of citric-acid induced cough,guinea pigs,40-60%
same,"capsaicin LogC5 (concentration causing at least 5 coughs), mean ± SD","healthy volunteers [7]; human, in vivo, 7 days",0.45 ± 0.38 μM
C[C@H](CS)C(=O)N1C[C@@H](Sc2ccccc2)C[C@H]1C(=O)O [zofenoprilat],time to peak blood levels,[5]; after oral administration of zofenopril,1.5 h
CCOC(=O)[C@H](CCc1ccccc1)N[C@@H](C)C(=O)N1CCC[C@H]1C(=O)O [enalapril],effect on FeNO in hypertensive patients,[9],did not show FeNO increase
same,effect on FeNO in normotensive volunteers,[9]; within a few hours,capable of increasing FeNO
